Target: T1, full length AKT E17K (Homo sapiens, UniProt P31749, E17K)
T1 construct: host or cells: HEK-293 (ATCC CRL-1573)
Assay: NanoBRET Target Engagement (TE) Assay
Type: cell-based
Details: competitive tracer displacement in living cells, read-out: AKT1 E17K IC50
Method in brief: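 Compound and tracer incubated 2 h before luminescence at donor 450 nm and acceptor 600 nm, with extracellular signal inhibited. EC50 by sigmoidal variable-slope regression.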

T1 sequence (P31749 whole entry E17K): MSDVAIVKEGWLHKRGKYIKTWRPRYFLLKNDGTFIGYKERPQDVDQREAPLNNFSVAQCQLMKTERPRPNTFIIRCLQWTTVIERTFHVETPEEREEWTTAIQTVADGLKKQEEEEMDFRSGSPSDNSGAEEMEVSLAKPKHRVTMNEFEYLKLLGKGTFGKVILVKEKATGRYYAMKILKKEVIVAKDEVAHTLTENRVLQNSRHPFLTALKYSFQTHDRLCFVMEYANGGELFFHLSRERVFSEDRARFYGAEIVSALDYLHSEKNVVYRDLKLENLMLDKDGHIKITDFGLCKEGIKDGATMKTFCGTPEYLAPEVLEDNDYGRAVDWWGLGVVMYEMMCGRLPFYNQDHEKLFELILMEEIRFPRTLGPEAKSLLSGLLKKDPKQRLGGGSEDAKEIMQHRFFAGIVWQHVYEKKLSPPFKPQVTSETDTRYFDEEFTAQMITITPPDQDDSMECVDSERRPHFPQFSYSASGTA

Row | SMILES | IC50
1 | N#Cc1nc2cc(F)cc(C(=O)NCc3ccc(-n4c(-c5cccnc5N)nc5cccnc54)cc3)c2s1 [Example 173, N-(4-(2-(2-aminopyridin-3-yl)-3H-imidazo[4,5-b]pyridin-3-yl)benzyl)-2-cyano-5-fluorobenzo[d]thiazole-7-carboxamide] | < 15 nM
2 | N#Cc1nc2c(C(=O)NCc3ccc(-n4c(-c5cccnc5N)nc5cccnc54)cc3)cc(F)cc2s1 [Example 174, N-(4-(2-(2-aminopyridin-3-yl)-3H-imidazo[4,5-b]pyridin-3-yl)benzyl)-2-cyano-6-fluorobenzo[d]thiazole-4-carboxamide] | 15 to 60 nM
3 | N#Cc1nc2cc(F)cc(C(=O)N3CCN(Cc4ccc(-n5c(-c6cccnc6N)nc6cccnc65)cc4)CC3)c2s1 [Example 175, 7-(4-(4-(2-(2-aminopyridin-3-yl)-3H-imidazo[4,5-b]pyridin-3-yl)benzyl)piperazine-1-carbonyl)-5-fluorobenzo[d]thiazole-2-carbonitrile] | 600 to 10000 nM
4 | N#Cc1nc2cc(F)cc(C(=O)N3CCN(Cc4ccc(-n5c(-c6cccnc6N)nc6ccc(-c7ccccc7)nc65)cc4)CC3)c2s1 [Example 180, 7-(4-(4-(2-(2-Aminopyridin-3-yl)-5-phenyl-3H-imidazo[4,5-b]pyridin-3-yl)benzyl)piperazine-1-carbonyl)-5-fluorobenzo[d]thiazole-2-carbonitrile] | 15 to 60 nM
5 | N#Cc1nc2c(C(=O)N3CCN(Cc4ccc(-n5c(-c6cccnc6N)nc6ccc(-c7ccccc7)nc65)cc4)CC3)cc(F)cc2s1 [Example 181, 4-(4-(4-(2-(2-Aminopyridin-3-yl)-5-phenyl-3H-imidazo[4,5-b]pyridin-3-yl)benzyl)piperazine-1-carbonyl)-6-fluorobenzo[d]thiazole-2-carbonitrile] | 15 to 60 nM
6 | N#Cc1nc2cc(F)cc(C(=O)NC3CCN(Cc4ccc(-n5c(-c6cccnc6N)nc6ccc(-c7ccccc7)nc65)cc4)CC3)c2s1 [Example 182, N-(1-(4-(2-(2-aminopyridin-3-yl)-5-phenyl-3H-imidazo[4,5-b]pyridin-3-yl)benzyl)piperidin-4-yl)-2-cyano-5-fluorobenzo[d]thiazole-7-carboxamide] | 60 to 600 nM
7 | N#Cc1nc2c(C(=O)NC3CCN(Cc4ccc(-n5c(-c6cccnc6N)nc6ccc(-c7ccccc7)nc65)cc4)CC3)cc(F)cc2s1 [Example 183, N-(1-(4-(2-(2-aminopyridin-3-yl)-5-phenyl-3H-imidazo[4,5-b]pyridin-3-yl)benzyl)piperidin-4-yl)-2-cyano-6-fluorobenzo[d]thiazole-4-carboxamide] | 60 to 600 nM
8 | N#Cc1nc2cc(C(=O)N3CCN(Cc4ccc(-n5c(-c6cccnc6N)nc6ccc(-c7ccccc7)nc65)cc4)CC3)ccc2s1 [Example 184, 5-(4-(4-(2-(2-aminopyridin-3-yl)-5-phenyl-3H-imidazo[4,5-b]pyridin-3-yl)benzyl)piperazine-1-carbonyl)benzo[d]thiazole-2-carbonitrile] | < 15 nM
9 | N#Cc1nc2cc(C(=O)NC3CCN(Cc4ccc(-n5c(-c6cccnc6N)nc6ccc(-c7ccccc7)nc65)cc4)CC3)ccc2s1 [Example 185, N-(1-(4-(2-(2-aminopyridin-3-yl)-5-phenyl-3H-imidazo[4,5-b]pyridin-3-yl)benzyl)piperidin-4-yl)-2-cyanobenzo[d]thiazole-5-carboxamide] | < 15 nM
10 | N#Cc1nccc(N2CCN(Cc3ccc(-n4c(-c5cccnc5N)nc5ccc(-c6ccccc6)nc54)cc3)CC23CC3)n1 [Example 198, 4-(7-(4-(2-(2-Aminopyridin-3-yl)-5-phenyl-3H-imidazo[4,5-b]pyridin-3-yl)benzyl)-4,7-diazaspiro[2.5]octan-4-yl)pyrimidine-2-carbonitrile] | 15 to 60 nM
11 | N#Cc1ccnc(N2CCN(Cc3ccc(-n4c(-c5cccnc5N)nc5ccc(-c6ccccc6)nc54)cc3)CC23CC3)n1 [Example 199, 2-(7-(4-(2-(2-Aminopyridin-3-yl)-5-phenyl-3H-imidazo[4,5-b]pyridin-3-yl)benzyl)-4,7-diazaspiro[2.5]octan-4-yl)pyrimidine-4-carbonitrile] | 60 to 600 nM
12 | N#Cc1nccc(N2C3CCC2CN(Cc2ccc(-n4c(-c5cccnc5N)nc5ccc(-c6ccccc6)nc54)cc2)C3)n1 [Example 203, 4-(3-(4-(2-(2-Aminopyridin-3-yl)-5-phenyl-3H-imidazo[4,5-b]pyridin-3-yl)benzyl)-3,8-diazabicyclo[3.2.1]octan-8-yl)pyrimidine-2-carbonitrile] | 60 to 600 nM
13 | N#Cc1ccnc(N2C3CCC2CN(Cc2ccc(-n4c(-c5cccnc5N)nc5ccc(-c6ccccc6)nc54)cc2)C3)n1 [Example 204, 2-(3-(4-(2-(2-Aminopyridin-3-yl)-5-phenyl-3H-imidazo[4,5-b]pyridin-3-yl)benzyl)-3,8-diazabicyclo[3.2.1]octan-8-yl)pyrimidine-4-carbonitrile] | 600 to 10000 nM
14 | N#Cc1cc(N2C3CCC2CN(Cc2ccc(-n4c(-c5cccnc5N)nc5ccc(-c6ccccc6)nc54)cc2)C3)ncn1 [Example 205, 6-(3-(4-(2-(2-Aminopyridin-3-yl)-5-phenyl-3H-imidazo[4,5-b]pyridin-3-yl)benzyl)-3,8-diazabicyclo[3.2.1]octan-8-yl)pyrimidine-4-carbonitrile] | 60 to 600 nM

More lines, now with the values ahead:

Row | IC50 | SMILES
15 | 15 to 60 nM | N#Cc1cc(C(=O)N2CCN(Cc3ccc(-n4c(-c5cccnc5N)nc5ccc(-c6ccccc6)nc54)cc3)CC2)ccn1 [Example 172, 4-(4-(4-(2-(2-Aminopyridin-3-yl)-5-phenyl-3H-imidazo[4,5-b]pyridin-3-yl)benzyl)piperazine-1-carbonyl)picolinonitrile]
16 | 15 to 60 nM | C[C@H]1CN(Cc2ccc(-n3c(-c4cccnc4N)nc4ccc(-c5ccccc5)nc43)cc2)C[C@H](C)N1c1ccnc(C#N)n1 [Example 192, 4-((2S,6S)-4-(4-(2-(2-Aminopyridin-3-yl)-5-phenyl-3H-imidazo[4,5-b]pyridin-3-yl)benzyl)-2,6-dimethylpiperazin-1-yl)pyrimidine-2-carbonitrile]
17 | 60 to 600 nM | C[C@H]1CN(Cc2ccc(-n3c(-c4cccnc4N)nc4ccc(-c5ccccc5)nc43)cc2)C[C@H](C)N1c1nccc(C#N)n1 [Example 193, 2-((2S,6S)-4-(4-(2-(2-Aminopyridin-3-yl)-5-phenyl-3H-imidazo[4,5-b]pyridin-3-yl)benzyl)-2,6-dimethylpiperazin-1-yl)pyrimidine-4-carbonitrile]
18 | 60 to 600 nM | C[C@H]1CN(Cc2ccc(-n3c(-c4cccnc4N)nc4ccc(-c5ccccc5)nc43)cc2)C[C@H](C)N1c1cc(C#N)ncn1 [Example 194, 6-((2S,6S)-4-(4-(2-(2-Aminopyridin-3-yl)-5-phenyl-3H-imidazo[4,5-b]pyridin-3-yl)benzyl)-2,6-dimethylpiperazin-1-yl)pyrimidine-4-carbonitrile]
19 | < 15 nM | C[C@@H]1CN(Cc2ccc(-n3c(-c4cccnc4N)nc4ccc(-c5ccccc5)nc43)cc2)C[C@@H](C)N1c1ccnc(C#N)n1 [Example 195, 4-((2R,6R)-4-(4-(2-(2-aminopyridin-3-yl)-5-phenyl-3H-imidazo[4,5-b]pyridin-3-yl)benzyl)-2,6-dimethylpiperazin-1-yl)pyrimidine-2-carbonitrile]
20 | 60 to 600 nM | C[C@@H]1CN(Cc2ccc(-n3c(-c4cccnc4N)nc4ccc(-c5ccccc5)nc43)cc2)C[C@@H](C)N1c1nccc(C#N)n1 [Example 196, 2-((2R,6R)-4-(4-(2-(2-aminopyridin-3-yl)-5-phenyl-3H-imidazo[4,5-b]pyridin-3-yl)benzyl)-2,6-dimethylpiperazin-1-yl)pyrimidine-4-carbonitrile]
21 | 60 to 600 nM | C[C@@H]1CN(Cc2ccc(-n3c(-c4cccnc4N)nc4ccc(-c5ccccc5)nc43)cc2)C[C@@H](C)N1c1cc(C#N)ncn1 [Example 197, 6-((2R,6R)-4-(4-(2-(2-aminopyridin-3-yl)-5-phenyl-3H-imidazo[4,5-b]pyridin-3-yl)benzyl)-2,6-dimethylpiperazin-1-yl)pyrimidine-4-carbonitrile]
22 | 15 to 60 nM | N#Cc1cc(N2CCN(Cc3ccc(-n4c(-c5cccnc5N)nc5ccc(-c6ccccc6)nc54)cc3)CC23CC3)ncn1 [Example 200, 6-(7-(4-(2-(2-Aminopyridin-3-yl)-5-phenyl-3H-imidazo[4,5-b]pyridin-3-yl)benzyl)-4,7-diazaspiro[2.5]octan-4-yl)pyrimidine-4-carbonitrile]
23 | 60 to 600 nM | N#Cc1nccc(NC2C3CCC2CN(Cc2ccc(-n4c(-c5cccnc5N)nc5ccc(-c6ccccc6)nc54)cc2)C3)n1 (stereo not drawn) [Example 201, 4-((3-(4-(2-(2-Aminopyridin-3-yl)-5-phenyl-3H-imidazo[4,5-b]pyridin-3-yl)benzyl)-3-azabicyclo[3.2.1]octan-8-yl)amino)pyrimidine-2-carbonitrile]
24 | 600 to 10000 nM | N#Cc1cc(NC2C3CCC2CN(Cc2ccc(-n4c(-c5cccnc5N)nc5ccc(-c6ccccc6)nc54)cc2)C3)ncn1 (stereo not drawn) [Example 202, 6-((3-(4-(2-(2-Aminopyridin-3-yl)-5-phenyl-3H-imidazo[4,5-b]pyridin-3-yl)benzyl)-3-azabicyclo[3.2.1]octan-8-yl)amino)pyrimidine-4-carbonitrile]
25 | 15 to 60 nM | C[C@H]1CN(Cc2ccc(-n3c(-c4cccnc4N)nc4ccc(-c5ccccc5)nc43)cc2)CCN1c1ccnc(C#N)n1 [Example 206, (S)-4-(4-(4-(2-(2-Aminopyridin-3-yl)-5-phenyl-3H-imidazo[4,5-b]pyridin-3-yl)benzyl)-2-methylpiperazin-1-yl)pyrimidine-2-carbonitrile]
26 | 60 to 600 nM | C[C@H]1CN(Cc2ccc(-n3c(-c4cccnc4N)nc4ccc(-c5ccccc5)nc43)cc2)CCN1c1nccc(C#N)n1 [Example 207, (S)-2-(4-(4-(2-(2-Aminopyridin-3-yl)-5-phenyl-3H-imidazo[4,5-b]pyridin-3-yl)benzyl)-2-methylpiperazin-1-yl)pyrimidine-4-carbonitrile]
27 | 60 to 600 nM | C[C@H]1CN(Cc2ccc(-n3c(-c4cccnc4N)nc4ccc(-c5ccccc5)nc43)cc2)CCN1c1cc(C#N)ncn1 [Example 208, (S)-6-(4-(4-(2-(2-Aminopyridin-3-yl)-5-phenyl-3H-imidazo[4,5-b]pyridin-3-yl)benzyl)-2-methylpiperazin-1-yl)pyrimidine-4-carbonitrile]

Reference: patent publication US12209087B2, “AKT1 modulators” (Alterome Therapeutics, Inc., priority 2022, dated 2025)
